Experimental data as given in patent US9156790B2, “Anticancer P21-activated kinase inhibitors” (Ohio State Innovation Foundation, priority 2013, dated 2015).
Like-named read-outs stand apart in the source and are kept apart here.

Assays:
[1] = tested on: BCPAP cells transfected with constitutively activated PAK1 cDNA; assay: Migration rescue experiment with constitutively activated PAK1; type: cell-based, Human; conditions: 1 μM compound, 24 hours, P<0.05
Description: Myc-tagged constitutively activated (CA) PAK1 cDNAs was the generous gift of Dr. Jonathan Chernoff (Fox Chase Cancer Center, Philadelphia, Pa.). Sells et al., J Cell Biol 145:837-849 (1999). pRC/CMV and pcDNA3.1(+) vector were purchased from Life Technologies. BCPAP cells were grown in RPMI containing 10% FBS until 40-50% confluent. They were transfected with CAPAK1 cDNA or a vector control, washed with PBS, trypsinized with 0.05% Trypsin-EDTA 1× (Gibco) for 5-10 min, collected with 10% FBS RPMI, and centrifuged at 300 g for 5 min. Cells were resuspended with 0% FBS RPMI and counted using Countess™ (Invitrogen). Then a volume of 1×10^5 cells suspended in 300 μl of 0% FBS RPMI was placed into Boyden chamber inserts (8 μm pore). The inserts were placed into wells of a 24 well plate filled with 400 μl of 0% FBS RPMI. The plate was incubated at 37° C. 5% CO2 for 1 hour. Then 30 μl (1 μM) of either compound 4 or 15 was added to the inserts and then incubated again for 1 hour. The inserts were transferred into different wells filled with 400 μl of 10% FBS RPMI. After incubation for 24 hours, the cells on either side of the insert membrane were fixed and quantified as above. Experiments were performed in triplicate on three occasions.
Because the compounds are multikinase inhibitors, we next sought to determine if PAK1 inhibition was responsible for some of the biological effects of the compounds. […]

S6 phosphorylation = assay: Western blot, S6 phosphorylation in thyroid cancer cells; type: cell-based, Human; conditions: for S6 phosphorylation, BCPAP and TPC1 cells: BCPAP and TPC1 cells (FIG. 4B)
Description: Protein isolation and Western blot were performed as previously described. Ringel et al., Cancer research 61:6105-6111 (2001). 25 μg of total cell lysates were loaded into 4-12% SDS-PAGE, electrophoresed, and transferred to nitrocellulose membranes for immunoblotting. Primary antibodies against Akt (#9272), phospho-Akt (Thr308) (#2965), p44/42 MAPK (Erk1/2) (#9107), phospho-p44/42 MAPK (Erk1/2) (Thr202/Tyr204) (#4377) and GAPDH (#2118) were obtained from Cell Signaling Technology (Danvers, Mass., USA). Antibody against Vimentin (V6630) and phospho-Ser55 Vimentin were from Sigma-Aldrich, Inc. (St. Louis, Mo.) and MBL Co. (Nagoya, Japan), respectively. Antibodies against total and phosphorylated S6 were from Cell Signaling Technology®.
The dose-dependency of compounds 4 and 15 was next assessed (FIG. 4). […] Due to the important role that ERK activation plays in thyroid cancer, and its signaling activation by thyroid oncogenes, the effects of the compounds on ERK phosphorylation was also assessed.

ROCK-I = ROCK-I (Homo sapiens, UniProt Q13464); assay: Kinase profiling panel: ROCK-I; type: biochemical; conditions: 5 μM compound; average of triplicate
Sequence of ROCK-I (Q13464 whole entry, species assumed): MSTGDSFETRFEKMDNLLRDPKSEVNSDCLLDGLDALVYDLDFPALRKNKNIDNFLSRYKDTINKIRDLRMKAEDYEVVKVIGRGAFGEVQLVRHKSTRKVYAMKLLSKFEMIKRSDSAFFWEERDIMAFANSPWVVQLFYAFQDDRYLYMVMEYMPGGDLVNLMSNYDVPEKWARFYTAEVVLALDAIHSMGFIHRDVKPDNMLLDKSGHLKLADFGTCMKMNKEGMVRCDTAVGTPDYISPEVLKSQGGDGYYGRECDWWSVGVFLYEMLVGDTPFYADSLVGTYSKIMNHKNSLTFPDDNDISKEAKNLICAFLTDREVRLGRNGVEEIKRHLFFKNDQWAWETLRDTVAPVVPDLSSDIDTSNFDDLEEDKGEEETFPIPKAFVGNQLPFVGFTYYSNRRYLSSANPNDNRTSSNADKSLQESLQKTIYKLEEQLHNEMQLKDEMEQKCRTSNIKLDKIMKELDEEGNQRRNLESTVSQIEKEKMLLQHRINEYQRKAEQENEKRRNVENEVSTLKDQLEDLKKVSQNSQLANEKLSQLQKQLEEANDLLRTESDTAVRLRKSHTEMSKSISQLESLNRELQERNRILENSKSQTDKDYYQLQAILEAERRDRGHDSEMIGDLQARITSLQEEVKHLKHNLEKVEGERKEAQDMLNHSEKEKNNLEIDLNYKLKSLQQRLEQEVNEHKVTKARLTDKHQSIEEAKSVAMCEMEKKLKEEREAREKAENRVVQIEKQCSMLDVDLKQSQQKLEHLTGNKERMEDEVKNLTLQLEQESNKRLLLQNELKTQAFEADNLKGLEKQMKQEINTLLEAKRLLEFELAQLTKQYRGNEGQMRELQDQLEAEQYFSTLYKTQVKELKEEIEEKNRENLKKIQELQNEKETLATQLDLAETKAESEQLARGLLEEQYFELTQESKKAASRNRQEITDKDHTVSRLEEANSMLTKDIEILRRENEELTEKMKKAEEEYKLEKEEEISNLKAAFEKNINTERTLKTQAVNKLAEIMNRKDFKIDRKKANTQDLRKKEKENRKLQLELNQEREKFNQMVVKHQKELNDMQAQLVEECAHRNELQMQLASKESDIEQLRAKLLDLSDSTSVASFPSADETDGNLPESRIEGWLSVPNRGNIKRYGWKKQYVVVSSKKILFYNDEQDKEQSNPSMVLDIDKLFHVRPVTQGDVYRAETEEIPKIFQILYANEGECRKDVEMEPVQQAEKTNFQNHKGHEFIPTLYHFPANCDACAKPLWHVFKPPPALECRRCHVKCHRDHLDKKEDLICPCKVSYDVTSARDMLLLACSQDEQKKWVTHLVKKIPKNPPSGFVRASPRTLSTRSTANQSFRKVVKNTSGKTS
Description: (§1) To further probe the selectivity of the compounds 4 and 15, they were subjected for kinase profiling service for screening against a panel of other kinases selected based on the kinase tree at 5 μM concentration, at or above the IC50 for the two compounds versus PAK in both in vitro and cell-based assays. […] PAK1 was not available for testing using this system thus it was not possible to compare directly in this assay system.

BCPAP cells = assay: Boyden chamber migration assay, BCPAP; type: cell-based, Human; conditions: 2.5 μM and 5.0 μM, 12 hours, P<0.05 versus DMSO
Description: Cells were grown in media containing 10% FBS. After 24 hours, the medium was aspirated, and media containing 1% FBS was added for 24 hours. The cells were trypsinized for 2 to 5 minutes, washed, and resuspended in media containing 1% FBS. The cell concentration was calculated by hemocytometer. Four hundred μl 1% FBS medium was added into 24-well plates, and a Boyden chamber (8 μm pore) was inserted into each well. Cells were added to each insert, and were allowed to attach in an incubator at 37° C. at 5% CO2 for 2 hours. The cells were then exposed to various concentrations of drugs or control diluent for 3 hours. The inserts were switched to a new well containing media containing 10% FBS, and the chamber was incubated for 12 or 24 hours depending on the migration rate of the cell line. The cells on and under the Boyden chamber membrane were fixed with 3.7% formaldehyde containing 0.05% crystal violet for 15 min after washing cells with PBS. The chambers were washed with distilled water. […] The Q-tips containing the scraped cells and the Boyden chamber containing the non-migrated cells were separately incubated in 80% methanol, shaken at 500 g for 30 minutes, and the extracted dye was measured at 570 nm. Migration was quantified as the ratio of the migrated cells over the total cells (non-migrated plus […]). […]

PAK2 = PAK2 (Homo sapiens, UniProt Q13177); assay: Kinase profiling panel: PAK2; type: biochemical; conditions: 5 μM compound; average of triplicate
Sequence of PAK2 (Q13177 whole entry, species assumed): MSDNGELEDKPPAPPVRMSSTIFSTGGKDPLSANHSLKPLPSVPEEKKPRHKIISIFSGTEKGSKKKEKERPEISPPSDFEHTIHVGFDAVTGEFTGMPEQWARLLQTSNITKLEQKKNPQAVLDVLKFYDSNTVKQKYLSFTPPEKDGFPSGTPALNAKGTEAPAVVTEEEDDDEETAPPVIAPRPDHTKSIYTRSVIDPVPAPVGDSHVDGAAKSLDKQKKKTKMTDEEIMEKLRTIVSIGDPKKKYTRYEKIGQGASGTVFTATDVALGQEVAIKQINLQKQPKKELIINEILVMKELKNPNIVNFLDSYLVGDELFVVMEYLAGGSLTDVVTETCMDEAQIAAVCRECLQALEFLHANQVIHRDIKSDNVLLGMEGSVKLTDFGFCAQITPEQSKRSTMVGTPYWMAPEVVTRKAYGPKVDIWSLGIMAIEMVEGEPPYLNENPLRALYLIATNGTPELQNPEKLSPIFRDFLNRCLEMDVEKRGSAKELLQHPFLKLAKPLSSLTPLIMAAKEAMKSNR
Description: as §1

PKBα = PKBα (Homo sapiens, UniProt P31749); assay: Kinase profiling panel: PKBα; type: biochemical; conditions: read-out: % activity vs. DMSO, PKBα
Sequence of PKBα (P31749 whole entry, species assumed): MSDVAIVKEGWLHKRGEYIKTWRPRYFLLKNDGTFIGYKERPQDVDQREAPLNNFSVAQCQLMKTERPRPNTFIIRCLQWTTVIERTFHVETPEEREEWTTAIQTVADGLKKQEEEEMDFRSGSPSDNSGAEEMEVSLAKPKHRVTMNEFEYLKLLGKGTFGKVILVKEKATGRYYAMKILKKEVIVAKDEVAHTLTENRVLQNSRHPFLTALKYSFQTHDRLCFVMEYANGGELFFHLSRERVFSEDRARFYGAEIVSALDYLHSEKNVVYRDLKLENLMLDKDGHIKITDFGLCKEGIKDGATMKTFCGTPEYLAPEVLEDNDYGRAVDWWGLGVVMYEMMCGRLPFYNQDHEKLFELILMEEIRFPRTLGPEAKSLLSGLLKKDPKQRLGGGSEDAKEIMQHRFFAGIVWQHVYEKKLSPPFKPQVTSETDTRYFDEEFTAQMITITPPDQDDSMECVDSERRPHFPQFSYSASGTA
Description: as §1

Structure (SMILES) | Rescue of anti-migratory effect by constitutively activated PAK1 [1] | S6 phosphorylation, BCPAP and TPC1 cells (S6 phosphorylation) | % activity vs. DMSO, ROCK-I (ROCK-I) [%] | Migration of BCPAP cells (BCPAP cells) | % activity vs. DMSO, PAK2 (PAK2) [%] | remaining activity at 5 µM (PKBα; 5 μM compound, average of triplicate) [%] | S6 phosphorylation, FTC133 cells (S6 phosphorylation; FTC133 cells (FIG. 4B)) | remaining activity at 5 µM (PKBα) [%]
NCCC(=O)Nc1ccc(-n2nc(C(F)(F)F)cc2-c2ccc3ccc4ccccc4c3c2)cc1 [Compound 4, 3-amino-N-(4-(5-(phenanthren-3-yl)-3-(trifluoromethyl)-1H-pyrazol-1-yl)phenyl)-propanamide] | rescued | inhibited this phosphorylation | 93 | inhibited migration | 70 | 103 |  | 
CC(C)NC(=O)c1cc(-c2ccc3ccc4ccccc4c3c2)n(-c2ccc(NC(=O)CN)cc2)n1 [Compound 15, 1-(4-(2-Aminoacetamido)phenyl)-N-isopropyl-5-(phenanthren-3-yl)-1H-pyrazole-3-carboxamide] | rescued | inhibited 56 phosphorylation | 95 | inhibited migration | 81 |  | inhibited 56 phosphorylation | 99
